The supplement of paper PMC10307832

Compound: CN(c1ncccc1CNc1nc(Nc2ccc3c(c2)CC(=O)N3)ncc1C(F)(F)F)S(C)(=O)=O
Assay: relative viability (nuclei count vs DMSO), 5 days (fraction); higher = more cells survive
In short: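 Lung cancer cell lines in 1536-well plates were kept overnight at 37 °C, then pinned with five library-drug doses (not always all listed) spaced by √10 on vehicle-anchored plates. After 5 days without medium change, cells were fixed, permeabilised and Hoechst-stained in one step, imaged at 4×, and nuclei were counted with MetaXpress. Viability is treated-well nuclei divided by vehicle-well nuclei, taken as the median over plates. Plates passed only with control CV below 25% and at least one doubling.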

Row | Cell Line | relative viability (0.01 µM) | relative viability (0.03162 µM) | relative viability (0.1 µM) | relative viability (0.3162 µM) | relative viability (1 µM)
1 | COR-L 105 | 1.04 | 0.955 | 0.945 | 0.874 | 0.92
2 | LK-2 | 1.05 | 1.24 | 1.03 | 1.08 | 1.1
3 | NCI-H727 | 1 | 0.949 | 0.87 | 1.02 | 0.79
4 | RERF-LC-KJ | 0.986 | 1.16 | 1.03 | 0.989 | 1.01
5 | NCI-H2023 | 1.06 | 1.19 | 0.787 | 0.797 | 0.892
6 | NCI-H322M | 1 | 1.03 | 0.917 | 1.12 | 1.12
7 | NCI-H1666 | 1.01 | 0.953 | 0.965 | 0.818 | 0.719
8 | SW 900 | 1.03 | 0.961 | 0.791 | 0.867 | 0.753
9 | NCI-H2087 | 1.01 | 1.21 | 0.974 | 1.05 | 1.06
10 | LU99A | 0.964 | 1.06 | 1.04 | 1.17 | 1.01
11 | HCC-366 | 0.997 | 1.04 | 1.02 | 1 | 1.02
12 | EKVX | 0.971 | 1.08 | 0.945 | 0.883 | 0.88
13 | NCI-H2342 | 0.884 | 1.02 | 0.791 | 0.962 | 0.854
14 | NCI-H1755 | 1.05 | 1.05 | 0.956 | 0.922 | 0.938
15 | NCI-H647 | 0.979 | 1.26 | 1.02 | 0.889 | 0.886
16 | LC-2-ad | 1.01 | 1.01 | 0.966 | 0.883 | 0.967
17 | NCI-H1793 | 0.877 | 1.07 | 0.928 | 0.857 | 0.786
18 | HCC-827 | 1.05 | 1.08 | 1.04 | 1.01 | 0.989
19 | HCC-78 | 0.993 | 1.02 | 0.807 | 0.862 | 0.739
20 | NCI-H2085 | 0.989 | 1.04 | 0.947 | 0.948 | 0.9
21 | PC-14 | 1.09 | 1.09 | 1.05 | 0.982 | 0.963
22 | NCI-H1648 | 0.773 | 0.512 | 0.585 | 0.634 | 0.458
23 | A-427 | 1.01 | 1.02 | 0.944 | 1.02 | 1.05
24 | H3255 | 0.974 | 1.07 | 0.95 | 0.906 | 0.972
25 | HCC-44 | 0.956 | 0.941 | 0.917 | 1 | 0.984
26 | NCI-H1734 | 0.985 | 1.04 | 0.947 | 1.02 | 0.953

Row | Cell Line | relative viability (0.01 µM) | relative viability (0.03162 µM) | relative viability (0.1 µM) | relative viability (0.3162 µM) | relative viability (1 µM)
27 | NCI-H2228 | 1.01 | 1.23 | 1.23 | 1.01 | 0.921
28 | ABC-1 | 0.947 | 0.818 | 0.926 | 0.899 | 0.879
29 | COR-L23 | 1.01 | 1.1 | 0.981 | 1 | 0.8
30 | NCI-H661 | 1.08 | 1.05 | 0.89 | 0.988 | 0.968
31 | NCI-H1993 | 0.855 | 0.99 | 0.855 | 0.925 | 0.821
32 | NCI-H1437 | 0.994 | 1.02 | 0.946 | 0.936 | 0.877
33 | UMC-11 | 0.961 | 0.966 | 0.993 | 0.963 | 0.861
34 | 201T | 1.02 | 0.951 | 0.911 | 0.949 | 0.961
35 | NCI-H358 | 0.943 | 0.973 | 0.868 | 0.838 | 0.664
36 | ChaGo-K-1 | 0.963 | 1.08 | 0.948 | 0.96 | 1.02
37 | NCI-H1650 | 0.924 | 0.961 | 0.947 | 0.904 | 0.886
38 | LOU-NH91 | 1.04 | 0.976 | 0.925 | 1.02 | 1.02
39 | HOP-62 | 1.07 | 1.08 | 0.99 | 0.979 | 0.98
40 | NCI-H1915 | 0.992 | 1 | 0.965 | 0.995 | 0.991
41 | NCI-H3122 | 0.994 | 1.06 | 1.01 | 1.03 | 0.953
42 | NCI-H1651 | 1.02 | 1.04 | 1 | 0.982 | 0.963
43 | EBC-1 | 1.03 | 1.09 | 0.989 | 0.937 | 0.776
44 | NCI-H838 | 1.01 | 1.03 | 0.979 | 0.903 | 0.808
45 | NCI-H596 | 0.977 | 0.917 | 1.02 | 0.886 | 0.94
46 | SK-LU-1 | 1.04 | 1.15 | 0.993 | 1.02 | 0.908
47 | NCI-H441 | 1.09 | 1.15 | 0.901 | 1.22 | 0.767
48 | NCI-H650 | 1.03 | 1 | 0.825 | 0.905 | 0.802
49 | SK-MES-1 | 1.01 | 1.06 | 0.954 | 0.971 | 0.832
50 | NCI-H1792 | 0.925 | 0.983 | 0.888 | 0.975 | 0.992
51 | NCI-H1355 | 1.03 | 1.03 | 0.954 | 0.995 | 0.948
52 | SW 1573 | 0.996 | 1.12 | 0.974 | 0.922 | 0.944

Row | Cell Line | relative viability (0.01 µM) | relative viability (0.03162 µM) | relative viability (0.1 µM) | relative viability (0.3162 µM) | relative viability (1 µM)
53 | A549 | 1.04 | 1.17 | 0.922 | 0.95 | 0.95
54 | NCI-H2347 | 1.09 | 0.942 | 0.978 | 0.877 | 0.829
55 | LCLC-97TM1 | 1 | 1.11 | 0.881 | 0.966 | 0.821
56 | EMC-BAC-2 | 1.02 | 0.921 | 0.938 | 0.948 | 0.948
57 | NCI-H1975 | 1.01 | 0.964 | 0.927 | 0.931 | 0.95
58 | BEN | 1.05 | 1.06 | 1.03 | 1 | 1.02
59 | NCI-H1703 | 0.955 | 0.931 | 0.861 | 1.08 | 0.905
60 | NCI-H23 | 1.02 | 0.963 | 1.06 | 1.06 | 0.973
61 | NCI-H520 | 1.04 | 1.2 | 1.03 | 1.17 | 1.18
62 | CAL-12T | 1.03 | 0.979 | 0.914 | 0.865 | 0.849
63 | EPLC-272H | 0.948 | 0.955 | 1.01 | 1.18 | 0.875
64 | LCLC-103H | 0.964 | 0.966 | 0.877 | 0.919 | 0.958
65 | NCI-H2405 | 1.06 | 0.935 | 0.931 | 0.8 | 0.82
66 | HCC-15 | 1.02 | 1.06 | 0.888 | 0.908 | 0.853
67 | PC-3 [JPC-3] | 0.998 | 1.05 | 0.981 | 1.03 | 0.943
68 | NCI-H1944 | 0.993 | 0.983 | 1 | 1.02 | 1.06
69 | HARA | 0.943 | 0.757 | 0.937 | 0.874 | 0.787
70 | NCI-H1563 | 1 | 0.962 | 0.947 | 0.808 | 0.938
71 | NCI-H2126 | 1 | 1 | 0.911 | 0.964 | 0.872
72 | LXF-289 | 1.09 | 1.05 | 1.01 | 0.991 | 1.01
73 | NCI-H460 | 1 | 1.1 | 0.979 | 1 | 1.02
74 | NCI-H1395 | 0.94 | 0.977 | 0.812 | 1.01 | 0.988
75 | NCI-H2170 | 0.962 | 1.13 | 1 | 0.965 | 0.981
76 | NCI-H2009 | 1.07 | 1.03 | 0.965 | 0.961 | 0.982
